“Also recorded” adds a separate entry of the source.
Assays:
[1] = system: lung carcinoma (LLC cell line); assay: NIR-II fluorescence imaging of subcutaneous LLC tumor-bearing C57BL/6 mice; assay type: in vivo, mouse
Source text: General NIR-II fluorescence imaging: A 640×512-pixel InGaAs camera (Ninox640, Raptor Photonics) and macro zoom lens (0-10×; Navitar Zoom 7000 with SWIR coating) along with 900, 1070, 1100, and 1200 nm long-pass (LP) filters from either Thorlab or Edmund optics were used to collect the NIR-II signal. InGaAs camera played a role as an open-air imaging system along with the support of the FLARE system. An 808 nm fiber-coupled diode laser ([…] at the sample) was used as an excitation source. Data acquisition was done using in-house developed software. […] Mice were imaged with intact skin using InGaAs camera. At least 3 mice were analyzed for each sample. Tumor-bearing mouse models: Animals were housed in an AAALAC-certified facility and were studied under the protocols approved by the MGH IACUC (2016N000136). Mice were maintained under anesthesia with isoflurane and oxygen during the experiment. To establish the various tumor-bearing mouse models including lung carcinoma, pancreatic ductal adenocarcinoma (PDAC), and triple negative breast adenocarcinoma, eight-week-old C57BL/6 mice (Taconic Farms, Germantown, NY) were subcutaneously injected with 2×10^5 LLC, Pan02, and E0771 cells suspended in DMEM/Matrigel (100 μL, 50 v/v %) in the flank region, respectively. Female C57BL/6 mice were used for the breast cancer (E0771) model, otherwise male mice were used. […] Statistical analysis: The fluorescence and background intensities of a region of interest over each tissue were quantified using customized imaging software and ImageJ v1.48 (National Institutes of Health, Bethesda, MD). The signal-to-background ratio (SBR) was calculated as SBR=fluorescence/background, where background was the fluorescence intensity of muscle. Data were reported as mean±s.e.m. with a minimum of three biological replicates. Student's t-test statistical analysis was performed to evaluate the significance of the experimental data. The differences among groups were determined using one-way ANOVA analysis to assess the statistical differences among more than two groups. […] The data was indicated with *p<0.05, ** p<0.01, *** p<0.001, and **** p<0.0001.

[2] = system: orthotopic lung cancer (LLC cell); assay: Orthotopic lung tumor targeting; assay type: in vivo, mouse; conditions: 50 nmol, 48 h prior to imaging
Source text: General NIR-II fluorescence imaging: A 640×512-pixel InGaAs camera (Ninox640, Raptor Photonics) and macro zoom lens (0-10×; Navitar Zoom 7000 with SWIR coating) along with 900, 1070, 1100, and 1200 nm long-pass (LP) filters from either Thorlab or Edmund optics were used to collect the NIR-II signal. InGaAs camera played a role as an open-air imaging system along with the support of the FLARE system. An 808 nm fiber-coupled diode laser ([…] at the sample) was used as an excitation source. Data acquisition was done using in-house developed software. The mice fur on the region of interest was shaved prior to imaging using a clipper and removed completely using a depilatory cream. 100 μL of SH1 in 5 w/v % BSA saline ([…]) was injected through the tail vein. Mice were imaged with intact skin using InGaAs camera. At least 3 mice were analyzed for each sample. […]
Statistical analysis: The fluorescence and background intensities of a region of interest over each tissue were quantified using customized imaging software and ImageJ v1.48 (National Institutes of Health, Bethesda, MD). The signal-to-background ratio (SBR) was calculated as SBR=fluorescence/background, where background was the fluorescence intensity of muscle. […] The differences among groups were determined using one-way ANOVA analysis to assess the statistical differences among more than two groups. […]

[3] = In vivo biodistribution study of NIR fluorophores in CD-1 mice; parameters: species or system mouse; conditions: 25 nmol intravenous, 4 h post-injection; listed as 18
Protocol: In Vivo Biodistribution Study of NIR Fluorophores: Under the supervision of the MGH IACUC, animals were housed in an AAALAC-certified facility and studied according to institutional protocol #2016N000136. In preparation for injection, CD-1 mice (25-30 g, 6 weeks, Charles River Laboratories, Wilmington, MA) were anesthetized with isoflurane and oxygen. A 10 mM stock solution of NIR fluorophores was prepared in DMSO, and 25 nmol of each molecule was diluted in BSA-containing saline (5 wt/v %) for intraoperative imaging. After 4 h post-injection, mice were imaged. For each experiment, camera exposure time and image normalization were held constant.
Quantitative Analysis: The fluorescence and background intensity of a region of interest (ROI) over each tissue was quantified using ImageJ software (NIH, Bethesda, MD) version 1.45q. The signal-to-background ratio (SBR) was calculated as SBR=fluorescence/background, where background is the signal intensity of neighboring tissues such as muscle. All NIR fluorescence images for a particular fluorophore were normalized identically for all conditions of an experiment.

CCCCN1/C(=C/C=C2\CCCC(/C=C/C3=[N+](CCCC)c4ccc(Cl)cc4C3(C)C)=C2Cl)C(C)(C)c2cc(Cl)ccc21 [SH1, 1-butyl-2-((E)-2-((E)-3-(2-((E)-1-butyl-5-chloro-3,3-dimethylindolin-2-ylidene)ethylidene)-2-chlorocyclohex-1-en-1-yl)vinyl)-5-chloro-3,3-dimethyl-3H-indol-1-ium]
tumor targeting / tumor signal ([1]; intravenous, NIR-II imaging until 48 h post-injection): superb signal intensity in tumor area
TBR ([1]; larger-sized lung tumors): 23.7
TBR against normal tissue [2]: 47.3
TBR against the lung [2]: 3.12
tissue/organ signals [3]: high signals in the primary and secondary lymphoid tissues; also recorded: higher signals in the bone marrow, spleen, and lymph nodes
